Assay results reported in paper PMC11403612, “Preparation and Preclinical Characterization of a Simple Ester for Dual Exogenous Supply of Lactate and Beta-hydroxybutyrate” (Journal of Agricultural and Food Chemistry, 2024).

Legend:
[1] = Hepatocyte stability of LaKe, rat; assay type: in vitro ADME; conditions: cryopreserved hepatocytes
[2] = Short-term pharmacokinetics of LaKe in rats (BHB and lactate levels); assay type: in vivo, Sprague–Dawley rats; conditions: 4.5 g/kg oral
Experimental: (§1) Male Sprague–Dawley rats (300–350g, Taconic, Ry, Denmark) were kept for acclimatization at a constant temperature of 23 °C with a 12 h light-dark cycle and with unlimited access to food and water. All animal handling was in accordance with national guidelines in Denmark and the guidelines from the Directive 2010/63/EU of the European Parliament on the protection of animals used for scientific purposes, and all experiments conformed to Danish Law (Act. No. 1306 of 23/11/2007). The experimental protocol was approved by the Danish Animal Expectorate (2018-15-0201-01475).
The rats were randomly selected to receive either LaKe (n = 8) or placebo (n = 8).
Rats were anesthetized in an induction chamber with 8% Sevoflurane (Sevorane, AbbVIE A/S, Copenhagen, Denmark) mixed with oxygen saturated atmospheric air (flow: 2.0 L/min). Upon achieved anesthesia, the rats were intubated and connected to a mechanical ventilator (Ugo Basile 7025 rodent ventilator, Comerio, Varese, Italy) with an adjusted flow of 1.0L/min with 3.5% Sevoflurane. Body temperature was kept at a constant of 37 ± 1 °C with a temperature probe (UNO, Zevenaar, Holland). A PTFE-coated flexible orogastric tube (Fuchigami, Japan) was placed, and the rat was left for stabilization for 15 min. […]
Short term pharmacokinetics of LaKe in rats – Detailed protocols for LC-MS/MS and FFA analyses BHB quantification by LC-MS/MS […]

[3] = test system: plasma free fatty acids (FFA); test: Plasma free fatty acids after oral LaKe in rats; assay type: in vivo, Sprague–Dawley rats; conditions: 4.5 g/kg oral
Experimental: as §1
The rats were randomly selected to receive either LaKe (n = 8) or placebo (n = 8). […]
Concentrations of non-esterified free fatty acids (FFA) were measured using a NEFA-HR(2) kit (Wako, Chemicals Gmbh, Germany). Absorbance was measured by spectrometry (PHERAstar FS, BMG LABTECH, […]
Quantification of N-L-lactoyl phenylalanine (Lac-Phe) by LC-MS/MS […]
Pure calibrant samples were prepared from an authentic standard compound (N-L-lactoyl phenylalanine), using the plasma sample preparation method at concentrations equivalent to […] in the original sample. The lower limit of quantification for N-L-lactoyl phenylalanine (Lac-Phe) quantification was estimated to 10 nM. […]

CC(O)CCOC(=O)C(C)O (centres unmarked) [LaKe, 3-hydroxybutyl 2-hydroxypropanoate]
half-life at 0.1 mg/mL [1]: < 30 min | BHB levels at 120 min [2]: remained elevated | lactate levels at 120 min [2]: largely back at the baseline level | maximum suppression of FFA levels ([3]; 75 min time point, compared to vehicle): > 40% | change in plasma free fatty acids compared to vehicle control ([3]; from 15 min until 105 min): decrease
